Row | melting point | SMILES
1 | 197 to 200 °C | CCOCc1nc2c(N)nc3ccccc3c2n1CCCCS(=O)(=O)Nc1ccccn1 [Example 40, 4-[4-Amino-2-(ethoxymethyl)-1H-imidazo[4,5-c]quinolin-1-yl]-N-(pyridin-2-yl)butane-1-sulfonamide]
2 | 203 to 205 °C | CCOCc1nc2c(N)nc3ccccc3c2n1CC(C)(C)CS(=O)(=O)NCc1ccc(OC)cc1 [Example 41, 3-[4-Amino-2-(ethoxymethyl)-1H-imidazo[4,5-c]quinolin-1-yl]-N-(4-methoxybenzyl)-2,2-dimethylpropane-1-sulfonamide]
3 | 229 to 231 °C | CCOCc1nc2c(N)nc3ccccc3c2n1CC(C)(C)CS(N)(=O)=O [Example 42, 3-[4-Amino-2-(ethoxymethyl)-1H-imidazo[4,5-c]quinolin-1-yl]-2,2-dimethylpropane-1-sulfonamide]
4 | 242 to 243 °C (dec.) | Cc1nc2c(N)nc3c(c2n1CC(C)(C)CS(N)(=O)=O)CCCC3 [Example 43, 3-(4-Amino-2-methyl-6,7,8,9-tetrahydro-1H-imidazo[4,5-c]quinolin-1-yl)-2,2-dimethylpropane-1-sulfonamide]

Source: US8735421B2, “Imidazoquinolinyl sulfonamides” (3M Innovative Properties Company, priority 2003, dated 2014)
